Measurements from patent publication US20240336604A1 (THE UNITED STATES OF AMERICA, AS REPRESENTED BY THE …, priority 2021, published 2024).
Entries after “also recorded” stand apart in the source; their conditions may differ.

How the values were obtained:
D2 DAR [1] = target: T1, D2 DAR (Homo sapiens, UniProt P14416); test: DiscoverX D2 DAR β-arrestin recruitment assay; assay type: cell-based; design: host or cells: CHO; details: EC80 concentration of DA (1 μM)
In short: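 CHO cells co-expressing ProLink-tagged D2 DAR and enzyme-acceptor-fused β-arrestin (PathHunter enzyme-fragment complementation). Receptor activation recruits β-arrestin, reconstituting β-galactosidase; detection reagent hydrolysis gives chemiluminescent read-out. Same PathHunter format used for other dopamine receptor subtypes.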

D3 DAR = D3 DAR (Homo sapiens, UniProt P35462); test: [3H]-methylspiperone radioligand binding assay; details: indicated concentrations, FIG. 1B
D3 DAR, sequence (P35462 whole entry): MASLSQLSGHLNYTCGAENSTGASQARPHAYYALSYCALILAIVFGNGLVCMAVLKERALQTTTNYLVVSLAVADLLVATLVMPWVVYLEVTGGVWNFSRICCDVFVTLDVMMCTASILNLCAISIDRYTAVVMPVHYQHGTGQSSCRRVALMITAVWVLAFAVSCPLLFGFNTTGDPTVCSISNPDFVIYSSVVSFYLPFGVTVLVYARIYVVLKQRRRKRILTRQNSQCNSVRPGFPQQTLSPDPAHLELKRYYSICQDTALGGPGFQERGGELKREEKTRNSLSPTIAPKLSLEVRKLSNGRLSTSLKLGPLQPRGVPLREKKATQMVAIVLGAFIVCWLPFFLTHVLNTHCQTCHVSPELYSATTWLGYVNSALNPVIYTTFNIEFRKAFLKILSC
Experimental: Compounds were tested for their ability to compete with the orthosteric radioligand [^3H]-methylspiperone for binding to the D3 DAR using HEK cells transiently transfected with the D3 DAR as described in the detailed protocol below presented in Table 5. Cells were cultured in Dulbecco's modified Eagle's Medium (Corning, catalogue no. 10-013) containing 10% FBS, 1,000 units/mL Penicillin, […] Streptomycin, 100 mM sodium pyruvate, 1 μg/mL Gentamicin, and […] G418. All cells were maintained at 37° C. in 5% CO2 and 90% humidity. For radioligand binding assays cells were removed mechanically using calcium-free Earle's balanced salt solution (EBSS). Intact cells were collected by centrifugation and then lysed with 5 mM Tris-HCl and 5 mM MgCl2 at pH 7.4. Homogenates were centrifuged at 30,000×g for 30 minutes. The membranes were re-suspended in EBSS (US Biological, catalogue no. E0249-05) pH 7.4 to a concentration of 16 μg/mL. For competition binding studies, membrane preparations were incubated for 90 minutes at room temperature with various concentrations of compound and a single concentration of [^3H]-methylspiperone (Perkin Elmer, NET856) in a reaction volume of […]. Non-specific binding was determined in the presence of 4 μM (+)-butaclamol (Sigma-Aldrich, catalogue no. D033). Bound ligand was separated from unbound by filtration through GF/C filters using a PerkinElmer cell harvester and quantified on a Top-count (PerkinElmer). Ki values were determined using Cheng-Prusoff equation from observed IC50 values and ligand Kd values from separate saturation experiments.

168 unique GPCRs = test: DiscoverX gpcrMAX β-arrestin recruitment assay panel; assay type: cell-based; details: 30 μM
Experimental: (§1) Cmp. 1 was tested as both an agonist (FIG. 5A) or an antagonist (FIG. 5B) at a single high concentration (30 μM) on 168 different GPCRs in the DiscoverX gpcrMAX™ β-arrestin recruitment assay panel (FIGS. 5A and 5B). Assay results are presented as the mean percent activation of indicated GPCRs (for n=2 replicates). For a full description of the DiscoverX gpcrMAX™-GPCR assay panel and methods (see: http://www.DiscoverX.com). […] Data were provided by the National Institute of Mental Health (NIMH) Psychoactive Drug Screening Program (PDSP) (University of North Carolina, Chapel Hill, NC). For experimental details including radioligands used and associated Kd values for each individual target, refer to the PDSP website: http://pdsp.med.unc.edu/. While Cmp. […] The 5-HT6 receptor was not present in the functional panels, however, subsequent testing found Cmp.

[2] = test system: 45 GPCRs, ion channels, and neurotransmitter transporters; test: PDSP radioligand binding panel; details: 10 μM
Experimental: as §1

D2 DAR [3] = target: T1, D2 DAR; test: BRET β-arrestin recruitment assay, D2 DAR; assay type: cell-based; details: FIG. 3A right
Experimental: BRET β-arrestin recruitment assay: As an orthogonal test using an unrelated assay of D2- or D3 DAR-mediated β-arrestin recruitment, an arrestin BRET assay was conducted. HEK293T cells transiently expressing D2-Rluc8, Arrestin3-mvenus and GRK2, or D3-Rluc8, Arrestin3-mvenus, and GRK3 were harvested with EBSS, plated in 96-well plates in Dulbecco's phosphate-buffered saline (DPBS) and incubated at rt for 45 min. […] BRET signal was determined by quantifying and calculating the ratio of the light emitted by mVenus (525 nm) over that emitted by RLuc8 (485 nm) using a PHERAstar FSX Microplate Reader (BMG Labtech).

T1 sequence (P14416 whole entry, the tested form may be a part): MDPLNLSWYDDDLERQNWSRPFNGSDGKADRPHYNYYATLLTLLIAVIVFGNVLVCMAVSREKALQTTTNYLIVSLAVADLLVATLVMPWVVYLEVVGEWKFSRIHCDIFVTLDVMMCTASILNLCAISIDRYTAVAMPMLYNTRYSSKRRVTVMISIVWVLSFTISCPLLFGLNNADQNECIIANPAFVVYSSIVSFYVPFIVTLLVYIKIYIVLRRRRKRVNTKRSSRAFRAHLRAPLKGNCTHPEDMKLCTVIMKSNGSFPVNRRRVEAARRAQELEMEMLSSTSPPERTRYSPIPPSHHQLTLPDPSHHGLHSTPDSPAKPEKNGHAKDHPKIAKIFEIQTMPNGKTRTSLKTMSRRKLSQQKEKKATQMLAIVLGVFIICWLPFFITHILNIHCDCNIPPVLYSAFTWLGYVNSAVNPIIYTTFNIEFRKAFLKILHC

In the case of `Cc1ccc(NS(=O)(=O)c2c(C)[nH]c(C)c2C(=O)N2CCCC2)cc1Cl` [Cmp. 1], the “D2 DAR Imax” value (D2 DAR [1]) is reported as “NA (“NA” indicates not active)”, the “inhibition of [3H]-methylspiperone binding to the D3 DAR” value (D3 DAR) is reported as “lacks ability to inhibit the binding” and the “functional activity at the H1 receptor in the functional panels” value (168 unique GPCRs; H1 receptor) is reported as “no functional activity”. For the same compound, the “agonist activity in gpcrMAX panel” value (168 unique GPCRs; agonist mode) was “lacked agonist activity at all 168 GPCRs”, the “antagonist activity in gpcrMAX panel” value (168 unique GPCRs; antagonist mode) was “the only GPCR that was antagonized was the D3 DAR” and the “off-target affinity / displacement in radioligand binding panel” value [2] was “limited off-target affinity; also recorded: minimal displacement at only the H1 histamine and 5-HT6 serotonin receptors”. For the same compound, the “antagonist activity at the D2 DAR, BRET β-arrestin” value (D2 DAR [3]) was “lacked antagonist activity”.
